Assay results reported in ChEMBL document CHEMBL4382198, “Discovery of Risdiplam, a Selective Survival of Motor Neuron-2 ( SMN2) Gene Splicing Modifier for the Treatment of Spinal Muscular Atrophy (SMA)” (J Med Chem, 2018).
One block for each compound: values may come before it.

Experiments:
[1] = molecular target: Survival motor neuron protein (Homo sapiens) (UniProt Q16637); test: Activation of SMN protein in human SMA-derived fibroblasts after 48 hrs by HTRF assay
Homo sapiens [2] = species on record: Homo sapiens; test: Activation of human full length SMN2 mRNA expressed in human SMA-derived fibroblasts by RT-qPCR analysis
in vivo = conditions: rat
[3] = Drug metabolism in po dosed cynomolgus monkey plasma assessed as dealkylated 2-(4-ethyl-6-methylpyrazolo[1,5-a]pyrazin-2-yl)-9-methyl-7-(piperidin-4-yl)-4H-pyrido[1,2-a]pyrimidin-4-one metabolite formation; assay type: ADME, organism-based, Macaca fascicularis; conditions: in vivo
[4] = Effect on human FOXM1b/c mRNA splicing expressed in human SMA-derived fibroblasts by RT-qPCR analysis; assay type: ADME
[5] = Efflux ratio of permeability in human SMA-derived fibroblasts; assay type: ADME, cell-based, Fibroblast; conditions: not told
[6] = Drug metabolism in po dosed rat plasma assessed as dealkylated 2-(4-ethyl-6-methylpyrazolo[1,5-a]pyrazin-2-yl)-9-methyl-7-(piperidin-4-yl)-4H-pyrido[1,2-a]pyrimidin-4-one metabolite formation; assay type: ADME, organism-based; conditions: in vivo
[7] = Drug metabolism in po dosed mouse plasma assessed as dealkylated 2-(4-ethyl-6-methylpyrazolo[1,5-a]pyrazin-2-yl)-9-methyl-7-(piperidin-4-yl)-4H-pyrido[1,2-a]pyrimidin-4-one metabolite formation; assay type: ADME, organism-based; conditions: in vivo
[8] = Efflux ratio of permeability in mouse 3T3 cells; assay type: ADME, cell-based, NIH3T3
[9] = Stabilization of human STRN3 mRNA splicing expressed in human SMA-derived fibroblasts at 131 to 655 nM by RT-qPCR analysis; assay type: ADME; conditions: 0.655 µM
[10] = Terminal half life in cynomolgus monkey; assay type: ADME, Macaca fascicularis; conditions: in vivo, read-out: beta t1/2 (converted)
[11] = Terminal half life in rat; assay type: ADME; conditions: in vivo, read-out: beta t1/2 (converted)
[12] = Effect on FOXM1b/c mRNA splicing in cynomolgus monkey induced pluripotent stem cells by RT-qPCR analysis; assay type: ADME, Macaca fascicularis
[13] = Drug metabolism in rabbit plasma assessed as dealkylated 2-(4-ethyl-6-methylpyrazolo[1,5-a]pyrazin-2-yl)-9-methyl-7-(piperidin-4-yl)-4H-pyrido[1,2-a]pyrimidin-4-one metabolite formation; assay type: ADME, cell-free, Oryctolagus cuniculus
[14] = Cardiotoxicity in cynomolgus monkey assessed as prolongation of QTc interval time; assay type: toxicity, Macaca fascicularis
Homo sapiens [15] = species on record: Homo sapiens; test: Modulation of human SMN2 mRNAsplicing expressed in HEK293H cells by qRT-PCR analysis; assay type: cell-based
[16] = Drug metabolism in rat plasma assessed as dealkylated 2-(4-ethyl-6-methylpyrazolo[1,5-a]pyrazin-2-yl)-9-methyl-7-(piperidin-4-yl)-4H-pyrido[1,2-a]pyrimidin-4-one metabolite formation; assay type: ADME, cell-free
[17] = Dark toxicity in mouse 3T3 cells assessed as decrease in cell viability by neutral red uptake assay; assay type: cell-based, NIH3T3
[18] = Oral bioavailability in rat at 5 mg/kg administered as single dose; assay type: ADME, organism-based; conditions: in vivo
[19] = Terminal half life in human; assay type: ADME; conditions: read-out: beta t1/2 (converted)
[20] = Clearance in rat at 2 mg/kg, iv administered as single dose; assay type: ADME, organism-based; conditions: in vivo
NIH3T3 = test: Phototoxicity in mouse 3T3 cells assessed as decrease in cell viability in presence of UV light by neutral red uptake assay; assay type: cell-based; conditions: NIH3T3, light or radiation study
[21] = Chronic toxicity in retina of po dosed cynomolgus monkey assessed as multifocal peripheral retina degeneration after 39 weeks by OCT analysis; assay type: organism-based, Macaca fascicularis; conditions: in vivo, 6552 h
[22] = Chronic toxicity in retina of po dosed cynomolgus monkey assessed as formation of microcystic spaces in the inner retinal layers after 39 weeks by OCT analysis; assay type: organism-based, Macaca fascicularis; conditions: in vivo, 6552 h
[23] = Oral bioavailability in cynomolgus monkey at 1.3 mg/kg administered as single dose; assay type: ADME, organism-based, Macaca fascicularis; conditions: in vivo
[24] = Volume of distribution at steady state in cynomolgus monkey; assay type: ADME, Macaca fascicularis; conditions: in vivo, read-out: Vdss
[25] = Tmax in human; assay type: ADME
[26] = Effect on FOXM1b/c mRNA splicing in human induced pluripotent stem cells by RT-qPCR analysis; assay type: ADME
hERG (KCNH2) = hERG (KCNH2) (Homo sapiens, UniProt Q12809); test: (§1) Inhibition of human ERG at 37 degC; conditions: human
[27] = molecular target: Voltage-gated inwardly rectifying potassium channel KCNH2 (Homo sapiens, UniProt Q12809); test: as §1
Mus musculus [28] = test: In-vivo stabilization of SMN2 mRNA in SMA neonatal delta7 mouse model assessed as increase in free SMN protein levels by measuring free AUC (0 to 42 hrs) at 1 mg/kg, ip dosed once daily starting from postnatal day 3 to postnatal day 9; assay type: functional
[29] = Stabilization of human MADD mRNA splicing expressed in human SMA-derived fibroblasts at 131 to 655 nM by RT-qPCR analysis; assay type: ADME; conditions: 0.655 µM
[30] = Half life in cynomolgus monkey at 1.3 mg/kg, po administered as single dose; assay type: ADME, organism-based, Macaca fascicularis; conditions: in vivo
[31] = Chronic toxicity in retina of po dosed cynomolgus monkey assessed as effect on photo-receptor layers after 39 weeks by histological analysis; assay type: organism-based, Macaca fascicularis; conditions: in vivo, 6552 h
[32] = Drug metabolism in pig plasma assessed as dealkylated 2-(4-ethyl-6-methylpyrazolo[1,5-a]pyrazin-2-yl)-9-methyl-7-(piperidin-4-yl)-4H-pyrido[1,2-a]pyrimidin-4-one metabolite formation; assay type: ADME, cell-free, Sus scrofa
[33] = Chronic toxicity in retina of po dosed cynomolgus monkey assessed as RPE hypertrophy 39 weeks by histological analysis; assay type: organism-based, Macaca fascicularis; conditions: in vivo, 6552 h
[34] = Chronic toxicity in retina of po dosed cynomolgus monkey assessed as effect on outer nuclear layers after 39 weeks by histological analysis; assay type: organism-based, Macaca fascicularis; conditions: in vivo, 6552 h
[35] = Stabilization of human APLP2 mRNA splicing expressed in human SMA-derived fibroblasts at 131 to 655 nM by RT-qPCR analysis; assay type: ADME; conditions: 0.655 µM
[36] = Drug metabolism in dog plasma assessed as dealkylated 2-(4-ethyl-6-methylpyrazolo[1,5-a]pyrazin-2-yl)-9-methyl-7-(piperidin-4-yl)-4H-pyrido[1,2-a]pyrimidin-4-one metabolite formation; assay type: ADME, cell-free, Canis lupus familiaris
[37] = Lipophilicity, log D of the compound at pH 7.4; assay type: physicochemical; conditions: buffer
[38] = Drug metabolism in human plasma assessed as dealkylated 2-(4-ethyl-6-methylpyrazolo[1,5-a]pyrazin-2-yl)-9-methyl-7-(piperidin-4-yl)-4H-pyrido[1,2-a]pyrimidin-4-one metabolite formation; assay type: ADME, cell-free
[39] = Drug metabolism in mouse plasma assessed as dealkylated 2-(4-ethyl-6-methylpyrazolo[1,5-a]pyrazin-2-yl)-9-methyl-7-(piperidin-4-yl)-4H-pyrido[1,2-a]pyrimidin-4-one metabolite formation; assay type: ADME, cell-free
[40] = Effect on human FOXM1a mRNA splicing expressed in human SMA-derived fibroblasts by RT-qPCR analysis; assay type: ADME
[41] = Drug metabolism in cynomolgus monkey plasma assessed as dealkylated 2-(4-ethyl-6-methylpyrazolo[1,5-a]pyrazin-2-yl)-9-methyl-7-(piperidin-4-yl)-4H-pyrido[1,2-a]pyrimidin-4-one metabolite formation; assay type: ADME, cell-free, Macaca fascicularis
Mus musculus [42] = test: In-vivo stabilization of SMN2 mRNA in SMA neonatal delta7 mouse model assessed as increase in free SMN protein levels by measuring free AUC (0 to 42 hrs) at 3 mg/kg, ip dosed once daily starting from postnatal day 3 to postnatal day 9; assay type: functional
[43] = Chronic toxicity in retina of po dosed cynomolgus monkey assessed as formation of scotopic depressed B-waves after 39 weeks by ERG analysis; assay type: organism-based, Macaca fascicularis; conditions: in vivo, 6552 h
[44] = Volume of distribution at steady state in rat at 2 mg/kg, iv administered as single dose; assay type: ADME, organism-based; conditions: in vivo, read-out: Vdss
[45] = Chronic toxicity in retina of po dosed cynomolgus monkey assessed as excess vacuolation of inner nuclear layer after 39 weeks by histological analysis; assay type: organism-based, Macaca fascicularis; conditions: in vivo, 6552 h
[46] = Stabilization of human […] mRNA splicing expressed in human SMA-derived fibroblasts at 131 to 655 nM by RT-qPCR analysis; assay type: ADME; conditions: 0.655 µM
[47] = Half life in rat at 5 mg/kg, po administered as single dose; assay type: ADME, organism-based; conditions: in vivo

Survival motor neuron protein (Homo sapiens), sequence (Q16637 whole entry): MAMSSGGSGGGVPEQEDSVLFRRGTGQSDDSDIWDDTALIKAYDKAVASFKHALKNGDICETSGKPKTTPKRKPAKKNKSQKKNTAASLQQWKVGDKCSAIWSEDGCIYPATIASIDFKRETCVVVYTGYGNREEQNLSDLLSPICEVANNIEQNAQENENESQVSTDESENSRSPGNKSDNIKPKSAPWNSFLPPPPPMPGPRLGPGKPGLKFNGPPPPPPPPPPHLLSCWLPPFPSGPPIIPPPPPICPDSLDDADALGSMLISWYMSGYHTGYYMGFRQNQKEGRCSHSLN
hERG (KCNH2), sequence (Q12809 whole entry): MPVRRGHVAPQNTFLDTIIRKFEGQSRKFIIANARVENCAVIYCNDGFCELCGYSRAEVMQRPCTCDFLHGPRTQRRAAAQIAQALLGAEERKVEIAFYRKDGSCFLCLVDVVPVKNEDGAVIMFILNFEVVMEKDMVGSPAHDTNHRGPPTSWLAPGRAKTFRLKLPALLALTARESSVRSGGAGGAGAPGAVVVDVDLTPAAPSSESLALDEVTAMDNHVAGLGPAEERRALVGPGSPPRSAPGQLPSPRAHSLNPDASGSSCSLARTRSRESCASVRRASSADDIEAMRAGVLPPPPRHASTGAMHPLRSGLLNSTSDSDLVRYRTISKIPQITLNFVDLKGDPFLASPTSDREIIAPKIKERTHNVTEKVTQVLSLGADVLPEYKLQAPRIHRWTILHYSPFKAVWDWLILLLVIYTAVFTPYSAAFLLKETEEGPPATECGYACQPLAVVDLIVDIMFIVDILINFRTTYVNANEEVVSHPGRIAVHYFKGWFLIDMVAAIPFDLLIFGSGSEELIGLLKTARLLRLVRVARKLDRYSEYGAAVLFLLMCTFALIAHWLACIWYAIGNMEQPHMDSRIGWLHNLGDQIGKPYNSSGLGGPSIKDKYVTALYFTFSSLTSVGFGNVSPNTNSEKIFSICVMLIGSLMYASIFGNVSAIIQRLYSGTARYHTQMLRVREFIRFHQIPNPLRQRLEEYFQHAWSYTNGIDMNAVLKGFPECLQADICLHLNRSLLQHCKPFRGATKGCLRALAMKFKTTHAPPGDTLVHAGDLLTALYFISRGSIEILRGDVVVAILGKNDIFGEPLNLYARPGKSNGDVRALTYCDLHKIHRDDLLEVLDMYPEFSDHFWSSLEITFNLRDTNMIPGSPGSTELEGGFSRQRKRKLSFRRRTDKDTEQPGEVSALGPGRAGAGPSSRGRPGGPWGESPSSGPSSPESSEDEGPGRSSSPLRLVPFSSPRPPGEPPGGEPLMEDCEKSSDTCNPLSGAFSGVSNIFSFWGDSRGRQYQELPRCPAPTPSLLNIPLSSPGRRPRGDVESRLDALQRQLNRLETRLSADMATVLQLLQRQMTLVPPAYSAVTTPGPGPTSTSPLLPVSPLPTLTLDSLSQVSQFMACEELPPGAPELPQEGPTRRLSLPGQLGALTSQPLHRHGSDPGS
Voltage-gated inwardly rectifying potassium channel KCNH2, sequence (Q12809 whole entry): as above

Structure (SMILES): CCc1nc(C)cn2nc(C3=CC(=O)N4C=C(C5CCNCC5)C=C(C)C4N3)cc12 (stereo unspecified)
Drug metabolism [3]: <= 9 %ID
EC50 [4]: 23 nM
efflux ratio [5]: 18.7
Drug metabolism [6]: <= 9 %ID
Drug metabolism [7]: <= 9 %ID
efflux ratio [8]: 20
EC1.5 (Homo sapiens [2]): < 2 nM

Structure (SMILES): CCc1nc(C)cn2nc(-c3cc(=O)n4cc(C5CCN(C)CC5)cc(C)c4n3)cc12
Activity [9]: Non-Toxic
EC1.5 [1]: 87 nM
half-life [10]: 42 h
half-life [11]: 19 h
IC50 ([12]; Macaca fascicularis): 900 nM
Drug metabolism [13]: Metabolite_Detected
Time [14]: 10 ms
EC1.5 (Homo sapiens [15]): 23 nM
Drug metabolism [16]: Metabolite_Detected
IC50 [17]: > 10000 nM
bioavailability [18]: 100%
half-life [19]: 120 h
clearance [20]: 25 mL/min/kg
IC50 (NIH3T3): 330 nM
Activity [21]: Toxic
Activity [22]: Toxic
EC50 [4]: 352 nM
bioavailability [23]: 52%
Vd [24]: 20 to 30 L/kg
efflux ratio [5]: 2
Tmax [25]: 5 to 8 h
IC50 ([26]; Homo sapiens): 1850 nM
IC20 (hERG (KCNH2)): 500 nM
IC50 [27]: 1800 nM
fAUC (Mus musculus [28]): 73 ng·h/mL
Activity [29]: Non-Toxic
half-life [30]: 42 h
Activity [31]: Toxic
Drug metabolism [32]: Metabolite_Detected
pKa (physchem): 10.9
Activity [33]: Toxic
Activity [34]: Toxic
Activity [35]: Non-Toxic
Drug metabolism [36]: Metabolite_Detected
logD [37]: 2.3
Drug metabolism [38]: Metabolite_Detected
Drug metabolism [39]: Metabolite_Detected
EC50 [40]: 247 nM
Vd (in vivo): 20 to 30 L/kg
Drug metabolism [41]: Metabolite_Detected
fAUC (Mus musculus [42]): 118 ng·h/mL
Activity [43]: Toxic
Vd [44]: 29 L/kg
Activity [45]: Toxic
Activity [46]: Non-Toxic
half-life [47]: 19 h

Structure (SMILES): Cc1cn2cc(-c3cc(=O)n4cc(N5CCN(C)CC5)ccc4n3)cc(F)c2n1
pKa (physchem): 7.2
Vd (in vivo): 5 L/kg

Structure (SMILES): Cc1cn2nc(-c3cc(=O)n4cc(N5CCN(O)C6(CC6)C5)ccc4n3)cc(C)c2n1
Activity ([12]; cynomolgus monkey): Non-Toxic
Activity ([26]; human): Non-Toxic

Structure (SMILES): CCc1nc(C)cn2cc(-c3cc(=O)n4cc(N5CCC(N6CCC6)CC5)cc(C)c4n3)cc12
pKa (physchem): 8.9
Vd (in vivo): 20 L/kg

Structure (SMILES): Cc1cn2cc(-c3cc(=O)n4cc(N5CCN6CCC[C@@]6(C)C5)ccc4n3)cc(C(F)(F)F)c2n1
pKa (physchem): 8.4
Vd (in vivo): 9 L/kg

Structure (SMILES): Cc1cn2cc(-c3cc(=O)n4cc(N5CCC(N6CCCC6)CC5)ccc4n3)cc(C(F)(F)F)c2n1
pKa (physchem): 9.3
Vd (in vivo): 18 L/kg

Structure (SMILES): CCc1nc(C)cn2nc(-c3cc(=O)n4cc(C5CCN(CC)CC5)cc(C)c4n3)cc12
pKa (physchem): 9.1
Vd (in vivo): 20 L/kg

Continued, in another order:

EC1.5 (Homo sapiens [2]): 40 nM
Structure (SMILES): CCc1nc(C)cn2nc(-c3cc(=O)n4cc(N5CCN6CCC[C@H]6C5)ccc4n3)cc12
EC1.5 [1]: 163 nM

pKa (physchem): 7.6
Vd (in vivo): 7 L/kg
Structure (SMILES): CCc1nc(C)cn2nc(-c3cc(=O)n4cc(N5CCN6CCC[C@@H]6C5)ccc4n3)cc12

pKa (physchem): 8.4
Vd (in vivo): 15 L/kg
Structure (SMILES): CCc1nc(C)cn2nc(-c3cc(=O)n4cc(N5CCN6CCC[C@]6(C)C5)ccc4n3)cc12

pKa (physchem): 8.6
Vd (in vivo): 15 L/kg
Structure (SMILES): Cc1cn2cc(-c3cc(=O)n4cc(N5CCN6CCC[C@H]6C5)ccc4n3)cc(C)c2n1

pKa (physchem): 7.5
Vd (in vivo): 4 L/kg
Structure (SMILES): Cc1nc2c(F)cc(-c3cc(=O)n4cc(N5CCN6CCC[C@H]6C5)ccc4n3)cc2o1

EC1.5 (Homo sapiens [2]): 2 nM
Structure (SMILES): Cc1cn2nc(-c3cc(=O)n4cc(N5CCN6CCC[C@H]6C5)ccc4n3)cc(C)c2n1
EC1.5 [1]: 22 nM

EC1.5 (Homo sapiens [2]): 3 nM
Structure (SMILES): Cc1cn2nc(-c3cc(=O)n4cc(N5CCN6CCC[C@H]6C5)ccc4n3)ccc2n1
EC1.5 [1]: 20 nM

pKa (physchem): 7.3
Vd (in vivo): 7 L/kg
Structure (SMILES): Cc1cn2cc(-c3cc(=O)n4cc(N5CCN6CCC[C@H]6C5)ccc4n3)cc(C(F)(F)F)c2n1
